From PMC7157825, “Romo1-Derived Antimicrobial Peptide Is a New Antimicrobial Agent against Multidrug-Resistant Bacteria in a Murine Model of Sepsis” (mBio, 2020)
Where no end group is shown, it is not given here.

Experiments:
[1] = tested on: MRSA; assay: Murine model of sepsis caused by MDR bacteria; format: in vivo, mouse; settings: for increase of survival rate: 3 × 10^8 CFU iv, AMPR-11 10 mg/kg iv single dose, imipenem 10 mg/kg ip four times q12h, 15 mice/group
[2] = tested on: CRPA; assay: Murine model of sepsis caused by MDR bacteria; format: in vivo, mouse; settings: for increase of survival rate: 8 × 10^7 CFU iv, AMPR-11 10 mg/kg iv single dose, imipenem 10 mg/kg ip four times q12h, 15 mice/group
[3] = tested on: CRAB; assay: Murine model of sepsis caused by MDR bacteria; format: in vivo, mouse; settings: 5 × 10^8 CFU iv; AMPR-11 10 mg/kg iv single dose; imipenem 10 mg/kg ip four times q12h; 15 mice/group
[4] = tested on: CRKP; assay: Murine model of sepsis caused by MDR bacteria; format: in vivo, mouse; settings: 8 × 10^8 CFU iv; AMPR-11 10 mg/kg iv single dose; imipenem 10 mg/kg ip four times q12h; 15 mice/group
[5] = tested on: S. aureus (ATCC 29213); format: cell-based, Staphylococcus aureus; settings: ATCC 29213, 1 h, pH 7.4
Description: (§1) The minimum bactericidal concentration was determined as previously described with minor modifications ([29]). Briefly, bacteria (5 × 10^5 CFU/ml) in 10 mM phosphate buffer (pH 7.4) with a 1% volume of TS broth were incubated with various peptide dilutions in a 96-well plate. After incubation for 1 h, samples were placed on TS agar plates and incubated overnight at 37°C. The peptide concentration at which no colonies were identified on the plate was determined to be the MBC.

[6] = tested on: P. aeruginosa (ATCC 27853); format: cell-based, Pseudomonas aeruginosa; settings: ATCC 27853, 1 h, pH 7.4
Description: as §1

[7] = tested on: GFP-expressing EIEC; assay: GFP efflux / permeabilization of GFP-expressing EIEC; format: cell-based, Enteroinvasive Escherichia coli
Description: Flow cytometric assay to measure the efflux of GFP from GFP-expressing EIEC was performed using a FACS Canto II (Biosciences, CA). […] The number of internalized EIEC in HeLa cells (pcDNA 3.1 or pcDNA 3.1-Flag-Romo1/Control siRNA, Romo1 siRNA-1, or Romo1 siRNA-2) was measured using CFDA-stained EIEC. The data were measured and analyzed with FlowJo software (Tree Star, Inc., Ashland, OR).

[8] = Functional half-life of antimicrobial activity in mouse plasma; format: in vitro ADME; settings: 75% PBS and 25% mouse plasma (EDTA separation); pre-incubation 0, 5, 15, 30, 45, 60, or 75 min, then P. aeruginosa or S. aureus for 1 h; read-out CFU assay (antimicrobial activity)
[9] = tested on: P. aeruginosa (ATCC 27853); assay: Murine model of sepsis; format: in vivo, mouse
[10] = tested on: S. pneumoniae; format: cell-based; settings: 1 h, pH 7.4
Description: as §1

[11] = tested on: Mouse RBCs; format: cell-based
Description: Mouse RBCs were rinsed several times with PBS and centrifuged for 10 min at 2,000 rpm. […] After incubating for 1 h, the cells were pelleted at 1,000 × g for 10 min, and the absorbance of the supernatant was measured at 570 nm. The OD of the control was that of PBS (blank), and 1% Triton X-100 was used as the positive control.

[12] = Functional half-life of antimicrobial activity in human serum; format: in vitro ADME; settings: human serum (H4522; Sigma-Aldrich); pre-incubation 0, 5, 15, 30, 45, 60, or 75 min, then P. aeruginosa or S. aureus for 1 h; read-out CFU assay (antimicrobial activity)
[13] = tested on: Vancomycin-resistant E. faecium; format: cell-based, Enterococcus faecium; settings: 1 h, pH 7.4
Description: as §1

[14] = Protein lipid overlay (PLO) assay; format: binding; settings: TAMRA-AMPR-11 2 μg/ml, 2 h; 20 pmol of each lipid (PC, PG, PS, PE, PA, PI, lipid A, CL) on nitrocellulose
Description: The experiment was performed as previously described ([53]) with minor modifications. The lipid of PC, PG, PS, PE, PA, PI, lipid A, or CL was diluted and placed on the supported nitrocellulose membrane at 20 pmol and dried at room temperature. The membrane was blocked with Tris-buffered saline-Tween 20 (TBS-Tween 20, 50 mM Tris-HCl, 150 mM NaCl, and 0.1% Tween 20) containing 0.2% fatty acid-free bovine albumin for 1 h. After several washes in TBS, the membrane was incubated with TAMRA-AMPR-11 at 2 μg/ml in blocking solution for 2 h. After several washes with TBS-Tween 20, the fluorescent signal was detected using a fluorescent image scanner (Typhoon FLA 9500).

[15] = tested on: C57BL/6 mouse; assay: Single-dose safety in mice; settings: single dose 100 mg/kg intravenously; tracked for 15 days; compared to PBS
[16] = tested on: Vancomycin-resistant S. aureus; format: cell-based, Staphylococcus aureus; settings: 1 h, pH 7.4
Description: as §1

[17] = tested on: A. baumannii (ATCC 19606); assay: Murine model of sepsis; format: in vivo, mouse
[18] = tested on: K. pneumoniae (ATCC 13883); assay: Murine model of sepsis; format: in vivo, mouse
[19] = Effect of blood components on antimicrobial activity; format: in vitro ADME; settings: mouse RBCs, human LDL, human HDL, bovine serum albumin; incubated for indicated times, then bacteria 1 h; CFU assay
[20] = CF release from CF-encapsulated large unilamellar vesicles; settings: 1 μg/ml of peptide; fluorescence; compared with melittin, magainin 2, daptomycin
Description: Portions (10 μl) of the lipid mixture of E. coli total lipid extract were dried and rehydrated with 50 mM CF, 100 mM sucrose, and 5 mM HEPES/KOH (pH 7.4). Multilamellar liposomal suspensions were extruded with a 0.1-μm polycarbonate membrane using an Avanti Mini Extruder and purified by a PD-10 column (GE Healthcare, Buckinghamshire, United Kingdom) as previously described. The peptides were added to LUVs, and CF leakage was measured using Fluroskan Ascent FL (Thermo Labsystems, UK) in external buffer (150 mM KCl and 10 mM HEPES/Tris; pH 7). CF leakage was calculated using the following formula: CF leakage (%) = 100 × (F – F0)/(Fmax – F0), where F is the measured fluorescence intensity, F0 is the basal LUV fluorescence intensity, and Fmax is the fluorescence intensity of LUVs treated with 0.2% Triton X-100.

[21] = tested on: S. aureus (ATCC 29213); assay: Murine model of sepsis; format: in vivo, mouse
[22] = tested on: EIEC; assay: EIEC growth by spectrophotometry; format: cell-based, Enteroinvasive Escherichia coli; settings: 1 μg/ml of Romo1 protein
[23] = mouse blood after 48 h of infection, 10 mg/kg iv single dose
[24] = peptides iv 1 h after infection, tail vein blood 1 h after peptide administration

## C[C@@H](O)[C@H]1C(=O)N2C(C(=O)O)=C(SCCN=CN)C[C@H]12 [imipenem, reference compound]
[1]
  increase of survival rate: of little effectiveness
[2]
  increase of survival rate: of little effectiveness
[3]
  increase of survival rate: of little effectiveness
[4]
  increase of survival rate: of little effectiveness

## GGIGKTMMQSGGTFGTFMAIGMGIR [G54-R78]
[5]
  MBC value S. aureus: 300 µg/mL
[6]
  MBC value P. aeruginosa: 300 µg/mL

## GGIGKTMMQSGGTFGTFMAIGMGIRC [G54-C79]
[5]
  MBC value S. aureus: 300 µg/mL
[6]
  MBC value P. aeruginosa: 300 µg/mL

## GKTMMQSGGTFGTFMAIGMGIR [G57-R78]
[5]
  MBC value S. aureus: 300 µg/mL
[6]
  MBC value P. aeruginosa: 280 µg/mL

## GKTMMQSGGTFGTFMAIGMGIRC [G57-C79]
[5]
  MBC value S. aureus: 280 µg/mL
[6]
  MBC value P. aeruginosa: 250 µg/mL

## IGKTMMQSGGTFGTFMAIGMGIR [I56-R78]
[5]
  MBC value S. aureus: 300 µg/mL
[6]
  MBC value P. aeruginosa: 300 µg/mL

## IGKTMMQSGGTFGTFMAIGMGIRC [I56-C79]
[5]
  MBC value S. aureus: 300 µg/mL
[6]
  MBC value P. aeruginosa: 300 µg/mL

## KTMMQSGGTFGTFMAIGM [K58-M75]
[5]
  MBC value S. aureus: 300 µg/mL
[6]
  MBC value P. aeruginosa: 300 µg/mL

## KTMMQSGGTFGTFMAIGMG [K58-G76]
[5]
  MBC value S. aureus: 300 µg/mL
[6]
  MBC value P. aeruginosa: 300 µg/mL

## KTMMQSGGTFGTFMAIGMGI [K58-I77]
[5]
  MBC value S. aureus: 300 µg/mL
[6]
  MBC value P. aeruginosa: 300 µg/mL

## KTMMQSGGTFGTFMAIGMGIR [AMPR-11]
[7]; Fig. 2E, TAMRA-AMPR-11 with GFP-expressing EIEC
  time to kill bacteria: ≤ 10 min
[8]
  functional half-life in plasma: approximately 50 min
[9]; C57BL/6N mice, 2 × 10^7 CFU iv, AMPR-11 10 mg/kg iv single dose 1 h after infection, 20 mice/group, 15 days
  increase of survival rate: > 60%
[9]; [23]
  bacterial load in blood: decrease in the bacterial load in blood
[1]
  increase of survival rate: > 60%
[1]; CFU assay of organ homogenates, 10 mg/kg iv single dose
  bacterial load in the liver, spleen, and kidney: decrease in bacterial load in the liver, spleen, and kidney
[1]; [24]
  antimicrobial activity in blood (CFU counts) compared with known AMPs: statistically better than that of magainin 2, LL-37, or daptomycin
[10]
  MBC value S. pneumoniae: 100 µg/mL
[11]
  hemolytic activity: less cytotoxicity (Fig. 4A) and hemolytic activity (Fig. 4B) than magainin 2 and daptomycin
[12]
  functional half-life in serum: ~40 min
[2]
  increase of survival rate: > 60%
[2]; [24]
  antimicrobial activity in blood (CFU counts) compared with known AMPs: statistically better than that of magainin 2, LL-37, or daptomycin
[13]
  MBC value Vancomycin-resistant E. faecium: 100 µg/mL
[14]
  lipid preference (binding): specifically bound to lipid A and cardiolipin (CL)
[3]
  increase of survival rate: > 60%
[15]
  clinical signs (death, weight loss): no severe clinical signs such as death or weight loss
[16]
  MBC value Vancomycin-resistant S. aureus: 120 µg/mL
[17]; C57BL/6N mice, 4 × 10^8 CFU iv, AMPR-11 10 mg/kg iv single dose 1 h after infection, 15 mice/group, 15 days
  increase of survival rate: > 60%
[17]; [23]
  bacterial load in blood: decrease in the bacterial load in blood
[18]; C57BL/6N mice, 8 × 10^8 CFU iv, AMPR-11 10 mg/kg iv single dose 1 h after infection, 15 mice/group, 15 days
  increase of survival rate: > 60%
[18]; [23]
  bacterial load in blood: decrease in the bacterial load in blood
[19]
  antimicrobial activity after incubation with blood components: not inhibited by RBCs, LDL, HDL, or albumin
[20]
  CF release: to a similar extent as melittin
[21]; AMPR-11 administered immediately after infection, tail vein blood, CFU relative to PBS group
  bacterial load in blood over time: rapidly decreased the bacterial load in blood
[21]; C57BL/6N mice, 1 × 10^8 CFU iv, AMPR-11 10 mg/kg iv single dose 1 h after infection, 20 mice/group, 15 days
  increase of survival rate: > 60%
[21]; [23]
  bacterial load in blood: decrease in the bacterial load in blood
[4]
  increase of survival rate: > 60%

## KTMMQSGGTFGTFMAIGMGIRC [K58-C79]
[5]
  MBC value S. aureus: 150 µg/mL
[6]
  MBC value P. aeruginosa: 130 µg/mL

## LMGGIGKTMMQSGGTFGTFMAIGMGIR [L52-R78]
[5]
  MBC value S. aureus: 300 µg/mL
[6]
  MBC value P. aeruginosa: 300 µg/mL

## LMGGIGKTMMQSGGTFGTFMAIGMGIRC [L52-C79]
[5]
  MBC value S. aureus: 300 µg/mL
[6]
  MBC value P. aeruginosa: 300 µg/mL

## MMQSGGTFGTFMAIGMGIR [M60-R78]
[5]
  MBC value S. aureus: 300 µg/mL
[6]
  MBC value P. aeruginosa: 300 µg/mL

## MMQSGGTFGTFMAIGMGIRC [M60-C79]
[5]
  MBC value S. aureus: > 300 µg/mL
[6]
  MBC value P. aeruginosa: > 300 µg/mL

B1: Romo1: reactive oxygen species modulator 1, chemically synthesized, dissolved in 75% trifluoroethanol (peptide, UniProt P60602 2-79, looked up)
Reactive oxygen species …: PVAVGPYGQSQPSCFDRVKMGFVMGCAVGMAAGALFGTFSCLRIGMRGRELMGGIGKTMMQSGGTFGTFMAIGMGIRC
[7]; 100 nM Romo1, flow cytometry
  GFP efflux: induced green fluorescent protein (GFP) efflux
[22]
  bacterial growth: inhibited EIEC growth
